Assay results from patent publication US20150139957A1, “GROWTH ENHANCING ADDITIVE FROM POMEGRANATE PLANT FOR POULTRY FEED” (GANIR (1992) LTD., priority 2012, published 2015).

Tests used:
Ross male broilers [1] = test: Example 1: 42 d broiler trial, antibiotic in the feed present, absent or replaced; assay type: in vivo; conditions: PE1 4 kg per ton feed
Protocol: The effects of presence/absence/replacement of the antibiotics in the feed were examined. A group of 2000 Ross male broilers were randomly divided into four treatments and fed a mesh diet ad libitum. […] Body weight, feed intake and mortality were measured during the 42 d broiler trial. At the end of the trial, feed conversion was calculated and % cumulative mortality was recorded. Results indicated a 4.1% improved feed conversion in those birds which received an antibiotic growth promoter (Maxus™), compared to negative control (1.758 and 1.834 respectively). The addition of pomegranate extract powder improved feed conversion by 4.9% as compared to negative control treatment (1.744 and 1.834 respectively). Mortality results at end of trial were as follows: negative control 4.1%, antibiotic growth promoter 3.6% and pomegranate extract powder 1.4%.

Ross male broilers [2] = test: Example 2: broiler trial testing the efficacy of a taste masking agent; assay type: in vivo; conditions: alternative probiotic growth additive, treatment 5
Description: The objective of this trial was to test the efficacy of a taste masking agent. The trial examined the performance parameters in 2000 Ross male broilers randomly divided into 5 treatment groups. All broilers were fed mash feed ad libitum. Treatment 1, negative control, without addition of any growth promoter in feed, treatment 2, positive control with an antibiotic growth promoter avilamycin (Maxus™), treatment 3 received 2 kg additive PE1 of the invention per ton feed, treatment 4 received 2 kg additive PE1 of the invention per ton feed with a taste masking agent including thaumatin, and treatment 5 received an alternative probiotic growth additive (lactobacillus). Use of the masking agents improved broiler body weight results from 28-44 d period by 4.2% (1480 g vs 1420 g). Final body weight results at 44 d was improved by 3.6% in those broilers that received the masking agent as compared to those without. (2748 vs 2652). Feed conversion improved by 5.4% in those broilers receiving masking agent (1.84 instead of 1.94 kg/kg).

Molecule: COC[C@H]1O[C@@H](OC2OC[C@@H]3O[C@]4(O[C@H]3[C@H]2OC(=O)C(C)C)O[C@H](C)[C@@](O)(C(C)=O)[C@@H]2OCO[C@H]24)[C@@H](OC)[C@@H](O)[C@@H]1O[C@@H]1O[C@H](C)[C@H](OC)[C@H](O[C@H]2C[C@@]3(C)OC4(C[C@@H](O)[C@H](O[C@H]5C[C@@H](O)[C@H](OC(=O)c6c(C)c(Cl)c(O)c(Cl)c6OC)[C@@H](C)O5)[C@@H](C)O4)O[C@@H]3[C@@H](C)O2)[C@H]1O (stereo partly shown) [avilamycin]
- cumulative mortality at end of trial (Ross male broilers [1]; 42 d trial, negative control 4.1%): 3.6%
- improved feed conversion compared to negative control (Ross male broilers [1]; end of 42 d trial, diet ad libitum): 4.1%
- feed conversion (Ross male broilers [1]; end of 42 d trial, negative control 1.834): 1.758

Molecule: lactobacillus
- body weight throughout the trial versus both pomegranate extract groups (Ross male broilers [2]): consistently lower
